Here are results for ten compounds from PMC5554537 (Frontiers in Pharmacology, 2017).

Like-named read-outs stand apart in the source and are kept apart here.

A short description of series [1]: Metabolite profile in plasma, liver and HT29 tumor after i.p. SN30000. The conditions noted are these: SN30000 186 mg/kg i.p.; for Metabolite/SN30000 peak area, Tumor: HT29 tumor. The class given is in vivo, NIH-III mice. The method, then:
Mouse plasma and tissue homogenates, prepared from tissue samples in two volumes of ice-cold PBS using a TissueLyser II (Qiagen Sciences, Germantown, MD, United States) with 30 Hz oscillation frequency for 1 min, were processed by precipitating proteins with 3 vol MeOH and centrifuging (13,000 g, 4°C for 10 min). Supernatants were diluted into 3 vol water and analyzed with an Agilent model 6460 LC-MS/MS with an in-line photodiode array absorbance detector. Chromatographic separation was performed on a Zorbax Eclipse C18 column (100 mm × 3.0 mm, 1.8 μm; Agilent Technologies) at 35°C with a flow rate of 0.6 mL/min, with positive or negative mode electrospray ionization. The mobile phase was a gradient constructed using 80% MeCN/20% water/0.1% formic acid v/v/v (A) and 0.1% formic acid in water (B) from 10% A to 80% A with a total run time of […]. The gradient profile was: 0–4 min, 10% A; 4–11 min linear increase to 60% A; 11–12 min to 80% A; held for 1 min, returned to 10% A over 0.5 min and held for 2 min before the next sample injection. Absorbance spectra were collected from 230 to 600 nm with a reference wavelength of 550 nm. The mass/charge (m/z) ratio was scanned from 100 to 800 with a fragmentor voltage of 120 V. MS^2 with various collision energies was used for further characterization of some metabolites.
Metabolites were investigated in plasma, liver and HT29 tumors following i.p. dosing of female NIH-III mice with SN30000 at 186 mg/kg, which represents its previously determined MTD for this route and mouse strain ([Gu et al., 2014]). Representative chromatograms are shown in Supplementary Figure 1. A total of 19 metabolites (M1–M19) were provisionally identified (Figure 1 and Table 1). Assignments were confirmed by comparison with synthetic standards in the case of the 1-oxide M14 and nor-oxide M13, which have previously been reported as murine metabolites of SN30000 ([Wang et al., 2012]) and for M15 which is known to be the major photodegradation product of SN30000 ([Gu et al., 2014]). In addition, the previously unreported metabolite M18, which is the main plasma metabolite at late times, was isolated from pooled plasma of mice dosed with M14 in sufficient quantity for characterization by NMR (Supplementary Data). This identified M18 as an oxidation product of M14 with an alkanoic acid side-chain (Figure 1), an assignment that was confirmed by synthesis of the authentic compound which was identical by HPLC retention time, absorbance spectrum, elemental analysis, mass spectrum and NMR spectroscopy.

Series [2] can be described thus: Compartmental plasma PK model. The class given is in vivo. An excerpt: This model, shown schematically in Figure 9, is based on total (free + bound) plasma concentrations; the major metabolites (M14, M13, and M18) are explicit and clearance of SN30000 occurs only by reduction to M14. The i.p. bioavailability of SN30000 was modeled with an additional term for loss from the peritoneal compartment (kloss).

Series [3] in a line: in vivo. Conditions: female, NIH-III nude, mouse, plasma, ip.
Description: SN30000, M14 and M18 dosing solutions were prepared fresh in normal saline, filtered through 0.45 μm Acrodisc filters (Pall Life Sciences, Port Washington, NY, United States), protected from light in amber vials, and used within 3 h. Doses are expressed as mg of free base equivalent for SN30000 and M14, and free acid in the case of M18. […] Blood samples were collected from mice at various times by cardiac puncture, seconds after cervical dislocation, into ice-cold tubes containing K2EDTA. These were placed on ice immediately after collection and centrifuged (3,000 g, 3 min) within 10 min to harvest plasma. Plasma and tissues were rapidly frozen in liquid nitrogen before storage at -80°C for subsequent bioanalysis.
Non-compartmental parameters of 3H-mannitol for the data
shown in Figure 9 where female NIH-III nude mice were dosed with 3H-mannitol at
from mannitol concentrations as described in Methods for SN30000 and its metabolites.
Co-administered with Administered 16hr
In series [4] the test system is NIH-III mice. The series is described as follows: Mouse toxicity: MTD, survival and body weight loss after single i.p. doses. The conditions noted are these: i.p., NIH-III mice, as stated for the temperature study (Figure 4). The class given is in vivo. An excerpt: Mouse toxicity SN30000 and metabolites M14 and M18: survival and body weight loss following single i.p. doses to NIH-III mice.
Cmpd Dose Body weight nadir Body weight nadir
(µmol/kg) Survivala Survivala
Day Weight loss (%)b Day Weight loss (%)b […]
a Survival reported as a fraction of total nu mber of animal treated at a giv en dose, with an observation time of 14 days. Deaths were predominantly due to humane ter mination because of persistent clinical signs or body weight loss > 15% of pretreatment values. b Body weig ht loss at nadir, relative to pre-treatment values. Values are mean and errors are […]
c Data from Gu et al., 2014 d Mouse died <24 hr after dosing.

Series [5] relates to NIH-III mice. The series is described as follows: Core body (rectal) temperature and acute clinical signs after dosing. The class given is in vivo. The method, then: Supplementary Figure 3. Initial rates of core temperature decrease in (untreated) NIH-III mice post- mortem: co mparison with initial temperature change ante- mortem following treatment with benzotriazine oxides at their MTD. Temperature was measured in rectu m and liver over 15 min. Initial rates of temperature loss (°C/min) were: post- mortem (rectum):
(rectum) 0.33. The rectal temperature loss following dosing with M14 (135 mg/kg) was 0.6 °C/min (not shown for clarity). The drug-induced changes are redrawn from Fig. 4.

Series [6] deals with SiHa cells. The series is described as follows: Oxygen consumption rate, Seahorse XFe96 analyser. The class given is cell-based, human. Conditions: 200 µM, mitochondrial stress test. Here is the method: (OCR) of the human cervical carcinoma cell line SiHa and a previously described (Guise et al., 2007) POR-overexpressing transfectant SiHa/POR, determined using a Seahorse XFe96 Analyser (Agilent). Cells were passaged in αMEM plus 5% FCS, with 1 µM puromycin to maintain POR expression in the SiHa/POR cell line. Cells were ty pically seeded at 4×10^4 cells/well in Seahorse 96 well plates (without puromycin) and ~ 18 hr later the medium was changed to Seahorse medium with 10 mM glucose and 2 mM glutamine (SMGG) adjusted to pH 7.35 (150 µl/well). Plates were degassed to remove CO2, and inhibitors were added serially using the Seahorse injectors (25 µl/injection) with rotenone (final concentration 0.5 µM) typically added at the start of the 30 min equilibration in the flux analyser. OCR was monitored for three 3 min periods following each drug addition. […]
injection 1 and at each subsequent injection to maintain concentrations at 200 µM continuously during the test. The control received equivalent injections of SMGG without drugs. In all cases (including controls), injection 2 added oligomycin to give 0.5 µM, injection 3 added carbonyl cyanide […] (FCCP) to 0.5 µM, and injection 4 added rotenone and antimy cin to 1 µM each. V alues are means and errors are standard deviations, for 6 replicate cultures. […]
suppressed by M14, both in the presence (injection 1) and absence (injection 4) of respiratory […]
presence or absence of 0.5 µM rotenone when SN30000 is added cumulatively to give the indicated concentrations. Values are means and SEM for 5 replicate cultures. The fall in OCR after transient stimulation at each addition of SN30000 is consistent with the pattern for CHO/POR cells in Supplementary Fig. 4A.
C: Concentration dependence of increases in OCR by SiHa/POR cells, measured at the first […]
effects noted above. Left panel: SN30000. Right panel: TPZ. Values are means and errors are […]

Setting [7] is: administered 16hr after SN30000 0 mg/kg.
[8] abbreviates: at the highest i.p. dose of co-administered SN30000.
The mark [9] stands for this setting: co-administered with SN30000 18.6 mg/kg i.p.
[10] abbreviates: co-administered with SN30000 92.8 mg/kg i.p.
The mark [11] stands for this setting: co-administered with SN30000 186 mg/kg i.p.

In the case of `[O-][n+]1nc(CCCN2CCOCC2)nc2cc3c(cc21)CC=C3` [M5], in series [1], the “Metabolite/SN30000 peak area, Tumor” value is recorded as 0.04; the “Metabolite/SN30000 peak area, Liver” value is 0.64; the “Metabolite/SN30000 peak area, Plasma” value is listed as 0.05.
The like results for `[O-][n+]1nc(CCCNCCO)[n+]([O-])c2cc3c(cc21)CCC3` [M7] were, in that order, 0.06, 0.17 and 0.06.
The like results for `OCCNCCCc1nnc2cc3c(cc2n1)CCC3` [M11] were, in that order, 0.06, 0.34 and 0.04.
The like results for `[O-][n+]1nc(CCCNCCO)nc2cc3c(cc21)CCC3` [M12] were, in that order, 0.16, 1.06 and 0.13.
With `[O-][n+]1nc(CCC[N+]2([O-])CCOCC2)nc2cc3c(cc21)CCC3` [M15], in series [1], the “Metabolite/SN30000 peak area, Tumor” value is recorded as 0.24; the “Metabolite/SN30000 peak area, Liver” value is 0.21; the “Metabolite/SN30000 peak area, Plasma” value was found to be 0.26.
For `O=C(O)CCc1n[n+]([O-])c2cc3c(cc2[n+]1[O-])CCC3` [M16], in that order: 0.49, 0.34 and 0.50.
Turning to `O=C(O)CCc1nnc2cc3c(cc2n1)CCC3` [M17], in series [1], the “Metabolite/SN30000 peak area, Tumor” value is listed as 0.14; the “Metabolite/SN30000 peak area, Liver” value turned out to be 0.12; the “Metabolite/SN30000 peak area, Plasma” value came to 0.11.
`O=C1COCCN1CCCc1nc2cc3c(cc2[n+]([O-])n1)CCC3` [M19]: in series [1], the “Metabolite/SN30000 peak area, Tumor” value was found to be 0.02; the “Metabolite/SN30000 peak area, Liver” value turned out to be 0.27; the “Metabolite/SN30000 peak area, Plasma” value is reported as 0.03.
One may read the Cmax as the highest concentration seen after dosing. The term half-life denotes how long it takes for the measured level to halve. As for `OC[C@@H](O)[C@@H](O)[C@H](O)[C@H](O)CO` [Mannitol, mannitol], in series [2] (1-Oxide and Nor-oxide values fixed), the “Central compartment volume V1” value is 0.39 L/kg. Also, the “Approximate % suppression per °C of CL” value in series [2] (NIH-III, mouse, in vivo) is reported as approximately 24%. In series [2] (NIH-III, mouse, plasma, other: i.p. and i.v. datasets fitted simultaneously, model clearance of the compound, read-out: CL (converted)), the clearance is 19.5 mL/min/kg. Also, in series [2] (NIH-III, mouse, plasma, other: i.p. and i.v. datasets fitted simultaneously, read-out: Steady state volume VSS), the Vd is 0.39 L/kg. In addition, the AUC (3H-mannitol 25 µmol/kg co-administered with SN30000 1.86 mg/kg i.p.) is listed as 16.1 µM.hr/L; the AUC under setting [7] is recorded as 17.5 µM.hr/L; the AUC (administered 16hr after SN30000 18.6 mg/kg i.p.) came out at 19.6 µM.hr/L; the AUC (administered 16hr after SN30000 186 mg/kg i.p.) stood at 20.4 µM.hr/L; the AUC under setting [9] is given as 17.9 µM.hr/L; the AUC under setting [10] was found to be 36.2 µM.hr/L. Moreover, the AUC under setting [11] is 44.5 µM.hr/L. For the same compound, the “Increase in AUC” value under setting [8] was found to be 3 fold. Further, the “Increase in plasma half-life” value under setting [8] was approximately 2 fold. In addition, the highest concentration (Cmax) in series [3] (18.6 mg/kg, administered 16hr after SN30000 18.6 mg/kg i.p.) came out at 36.9 µM; in series [3] (186 mg/kg, administered 16hr after SN30000 186 mg/kg i.p.), 33.2 µM; in series [3] (setting [7]), 31.7 µM; in series [3] (co-administered with SN30000 1.86 mg/kg i.p.), 41.2 µM; in series [3] (setting [9]), 43.5 µM; in series [3] (setting [10]), 52.3 µM. In series [3] (setting [11]), the Cmax was found to be 51 µM. The half-life in series [3] (18.6 mg/kg, T1/2, administered 16hr after SN30000 18.6 mg/kg i.p.) was determined as 21 min; in series [3] (186 mg/kg, T1/2, administered 16hr after SN30000 186 mg/kg i.p.) it was 23.2 min; in series [3] (T1/2, administered 16hr after SN30000 0 mg/kg), 19.7 min; in series [3] (T1/2, co-administered with SN30000 1.86 mg/kg i.p.), 14.1 min; in series [3] (T1/2, co-administered with SN30000 18.6 mg/kg i.p.), 13.1 min; in series [3] (T1/2, co-administered with SN30000 92.8 mg/kg i.p.), 24.6 min. Further, the half-life in series [3] (T1/2, co-administered with SN30000 186 mg/kg i.p.) was 26.9 min.
For `Nc1n[n+]([O-])c2ccccc2[n+]1[O-]` [TPZ, tirapazamine, reference compound], the MTD in series [4] is 31.7 mg/kg. Also, the “Initial rate of temperature loss (rectum)” value in series [5] (i.p. SN30000 186 mg/kg, TPZ 31.7 mg/kg, M14 135 mg/kg) is 0.33 °C/min. Also, in series [5] (i.p. dosing at MTD, compared with SN30000), the “Effect on core body temperature” value is reported as “induced hypothermia”. In addition, in series [6], the “Effect on oxygen consumption rate (OCR)” value is recorded as “increased”.
